Here are results for 1 compound from patent publication US20250134952A1, “METHODS FOR IMPROVING THE EFFICACY OF HDAC INHIBITOR THERAPY AND PREDICTING THE RESPONSE TO TREATMENT WITH HDAC INHIBITOR” (INSTITUT NATIONAL DE LA SANTÉ ET DE LA RECHERCHE MÉDICALE, priority 2021, published 2025).

The test system of assay [1] is GAPDH promoter in MCF7shctrl cells. As to the kind of experiment: ChIP-qPCR of H3 acetylation and Tau occupancy on the GAPDH promoter. It counts as cell-based, human. Particulars: 100 nM TSA, GAPDH transcription start site. The source says: (A) Chromatin immunoprecipitations-qPCR analysis of H3 acetylation and Tau occupancy on the GAPDH promoter in MCF7shctrl cells in the indicated conditions. MCF7shctrl cells were subjected to cross-linking by 1% formaldehyde. Chromatin fragments were then immunoprecipitated using antibodies (Ab) against acetylated H3 (ac-H3) or Tau and analyzed by quantitative PCR for the presence of the GAPDH promoter. (B) Functional organization of the p21 promoter. (C) ChIP-qPCR analysis of H3 acetylation in MCF7shctrl or shTau cells or (D) Tau occupancy in MCF7shctrl cells on the p21 promoter. […] Chromatin fragments were then immunoprecipitated using antibodies (Ab) against acetylated H3 or Tau and analyzed by quantitative PCR for the presence of the GAL4 UAS promoter. Quantification of enrichment is represented as fold-enrichment relative to IgG. […]
To test this hypothesis, we next performed chromatin immunoprecipitations assays. […] Quantitative PCR analysis of input or immunoprecipitated DNA using acetylated H3 and Tau antibodies was carried out to detect different promoter regions. […] No change in the level of acetylated H3, nor Tau binding, were detected after TSA treatment (FIG. 3A). […] In addition, Tau was detected at the level of these regions in MCF7shctrl cells (≈4-fold enrichment) in absence or presence of TSA treatment (FIG. 3D).
(In qPCR the cycle at which signal appears reflects the starting amount.)

Assay [2] deals with HP1β clusters in Hela cells. The assay can be described thus: GFP-HP1β clusters per nuclei, confocal microscopy. It counts as cell-based. Particulars: TSA 300 nM, 24 h, control Hela cells. The protocol:
(A) Single confocal sections of Hela cells transfected with […], with or without Tau4R or TauP301L and treated 24 h later with the TSA (300 nM) for 24 h. Tau C-terminus antibodies and GFP fluorescence were used to visualize total Tau protein and HP1β respectively. Representative images are shown. (B) Quantification of HP1β clusters per nuclei visualized as described previously and realized on three independent experiments. Data are mean±SD *P<0.05 ***P<0.001.
MCF7shctrl, MCF7shTau or transfected Hela cells with Tau4R and GFP-HP1α were fixed in 4% paraformaldehyde for 30 min at room temperature. Permeabilization was carried out in 0.2% Triton X-100 in phosphate-buffered saline for 10 min at room temperature. After 1 h saturation in 2% bovine serum albumin, immunostaining was performed using Tau antibody (recognizing the C-terminal domain of Tau). […] Nuclear staining was performed by adding 1/2000 DAPI in phosphate-buffered saline for 10 min. Slides were then analyzed with a Zeiss LSM710 confocal laser scanning microscope (60× magnification). Images were collected in the Z direction at 0.80 μm intervals and quantifications were realized using the Image J plug-in.
To this end, we first performed GST-pulldown analysis using purified core histones. As shown previously, Tau interacted specifically with core histones as detected by H3, H4, H2A and H2B antibodies (data not shown). […]

For the next assay, the system named is breast cancer cell lines. The assay can be described thus: Preliminary experiments: lowest dose of TSA inducing cellular responses. Format: cell-based, human. The protocol:
To dissect the role of Tau in controlling chromatin we sought to perturb chromatin structure by inhibiting histone deacetylation with the pan-histone deacetylase-inhibitor trichostatin A (TSA). In our preliminary experiments we found the lowest dose of TSA inducing cellular responses was 100 nM and we used this concentration in all the following experiments. First, we evaluated cell death, apoptosis and cell cycle progression by flow cytometric analyses in the two cell lines (as above we just illustrate our results with MCF7 cells in the main paper). We tested the effect of TSA in the presence or absence of short hairpin RNAs (Tau and Control). After 48 hours there was a strong increase in the number of dead cells from less 2% to >50% in the Tau-knockdown cells and a lesser increase to 38% in sh-ctrl cells (FIG. 1). In agreement, apoptosis was measured at 48% and 30% respectively (FIG. 1C).

As to `CC(/C=C/C(=O)NO)=C\[C@@H](C)C(=O)c1ccc(N(C)C)cc1` [TSA, 2,4-Heptadienamide, 7-[4-(dimethylamino)phenyl]-N-hydroxy-4,6-dimethyl-7-oxo-, (2E,4E,6R)-], the “level of acetylated H3 and Tau binding after TSA treatment” value in assay [1] was “No change”. For the same compound, the “number of HP1 clusters following TSA treatment” value in assay [2] was “decrease”. In the assay with breast cancer cell lines, the “lowest dose of TSA inducing cellular responses” value is on record as 100 nM.
